Test results from ChEMBL document CHEMBL1156658, “Antifungal cyclic depsipeptide, eujavanicin A, isolated from Eupenicillium javanicum” (2008).
The source made the active and inactive calls. The calls are words filed in the database; no cut-off is given here. Non-standard residues stand in square brackets, D forms with d. Residues, ends and D or L forms follow the SMILES beside them. NMeI = CC[C@H](C)[C@H](NC)C(=O)O; NMeD = CN[C@@H](CC(=O)O)C(=O)O; NMeV = CN[C@H](C(=O)O)C(C)C; Pip = O=C(O)[C@@H]1CCCCN1; Lac = C[C@H](O)C(=O)O

Tests used:
Aspergillus fumigatus [1] = test: Antifungal activity against Aspergillus fumigatus assessed as zone of inhibition at 6.25 ug/disk by paper disk method; format: functional; conditions: read-out: IZ
Cryptococcus neoformans [2] = test: Antimicrobial activity against Cryptococcus neoformans at 50 ug/disk by paper disk method; format: functional, organism-based
Bacillus subtilis [3] = test: Antibacterial activity against Bacillus subtilis NBRC3134 at 100 ug/disk by paper disk method; format: functional, organism-based
Staphylococcus aureus [4] = test: Antibacterial activity against Staphylococcus aureus […] assessed as zone of inhibition at 50 ug/disk by paper disk method; format: functional, organism-based
Escherichia coli [5] = test: Antibacterial activity against Escherichia coli NBRC14237 at 100 ug/disk by paper disk method; format: functional, organism-based
Candida albicans [6] = test: Antimicrobial activity against Candida albicans at 50 ug/disk by paper disk method; format: functional, organism-based
Staphylococcus aureus [7] = test: Antibacterial activity against Staphylococcus aureus […] at 100 ug/disk by paper disk method; format: functional, organism-based
Salmonella enteritidis [8] = test: Antibacterial activity against Salmonella enteritidis NBRC3313 assessed as zone of inhibition at 50 ug/disk by paper disk method; format: functional, organism-based; conditions: Salmonella enterica subsp. enterica serovar Enteritidis
Escherichia coli [9] = test: Antibacterial activity against Escherichia coli NBRC14237 assessed as zone of inhibition at 50 ug/disk by paper disk method; format: functional, organism-based
Bacillus subtilis [10] = test: Antibacterial activity against Bacillus subtilis NBRC3134 assessed as zone of inhibition at 50 ug/disk by paper disk method; format: functional, organism-based
Aspergillus niger [11] = test: Antifungal activity against Aspergillus niger at 50 ug/disk by paper disk method; format: functional, organism-based
Salmonella enteritidis [12] = test: Antibacterial activity against Salmonella enteritidis NBRC3313 at 100 ug/disk by paper disk method; format: functional, organism-based; conditions: Salmonella enterica subsp. enterica serovar Enteritidis
Cryptococcus neoformans [13] = test: Antimicrobial activity against Cryptococcus neoformans; format: functional, organism-based
Aspergillus fumigatus [14] = test: Antifungal activity against Aspergillus fumigatus; format: functional, organism-based
Aspergillus niger [15] = test: Antifungal activity against Aspergillus niger; format: functional, organism-based
Candida albicans [16] = test: Antimicrobial activity against Candida albicans; format: functional, organism-based

Structure (SMILES): CC[C@H](C)[C@H]1C(=O)N[C@@H](CC(=O)O)C(=O)N(C)[C@@H](C(C)C)C(=O)N[C@@H](CC(C)C)C(=O)O[C@@H](C)C(=O)N2CCCC[C@H]2C(=O)N(C)[C@@H](C(C)C)C(=O)N[C@@H](C(C)C)C(=O)N(C)[C@@H](CC(=O)O)C(=O)N(C)[C@@H]([C@@H](C)CC)C(=O)N1C [EUJAVANICIN A] (cyclo(D[NMeV]L[Lac][Pip][NMeV]V[NMeD][NMeI][NMeI]))
- zone of inhibition at 6.25 µg/disc (Aspergillus fumigatus [1]): 23 mm
- Activity (Cryptococcus neoformans [2]): inactive
- Activity (Bacillus subtilis [3]): inactive
- Activity (Staphylococcus aureus [4]): inactive
- Activity (Escherichia coli [5]): inactive
- Activity (Candida albicans [6]): inactive
- Activity (Staphylococcus aureus [7]): inactive
- Activity (Salmonella enteritidis [8]): inactive
- Activity (Escherichia coli [9]): inactive
- Activity (Bacillus subtilis [10]): inactive
- Activity (Aspergillus niger [11]): inactive
- Activity (Salmonella enteritidis [12]): inactive

Structure (SMILES): CC[C@H](C)[C@H]1C(=O)N[C@@H](CC(=O)OC)C(=O)N(C)[C@@H](C(C)C)C(=O)N[C@@H](CC(C)C)C(=O)O[C@@H](C)C(=O)N2CCCC[C@H]2C(=O)N(C)[C@@H](C(C)C)C(=O)N[C@@H](C(C)C)C(=O)N(C)[C@@H](CC(=O)OC)C(=O)N(C)[C@@H]([C@@H](C)CC)C(=O)N1C (cyclo(D(OMe)[NMeV]L[Lac][Pip][NMeV]V[NMeD](OMe)[NMeI][NMeI]))
- Activity (Cryptococcus neoformans [13]): inactive
- Activity (Bacillus subtilis [3]): inactive
- Activity (Aspergillus fumigatus [14]): inactive
- Activity (Aspergillus niger [15]): inactive
- Activity (Escherichia coli [5]): inactive
- Activity (Staphylococcus aureus [7]): inactive
- Activity (Candida albicans [16]): inactive
- Activity (Salmonella enteritidis [12]): inactive
